Laboratory results: patent US10167270B2, “Substituted quinazoline compounds and uses thereof for modulating glucocerebrosidase activity” (Northwestern University, priority 2015, dated 2019)

Target: Glucocerebrosidase (Homo sapiens (Human), UniProt P04062)
Assay: Glucocerebrosidase activity assay with blue substrate (4MU-Glc)
Format: biochemical
Details: direction not given
Procedure: The compounds in DMSO solution 0.5 μL/well were transferred to a black 96-well plate. The final titration was 24 nM to 50 μM, 12 concentrations, 2 times dilution. […] After 5 min of incubation at room temperature, the enzyme reaction was initiated by the addition of 33 μL/well blue substrate. Final concentrations of the blue substrate (4MU-Glc) was 1.5 mM. The blue substrate reaction was terminated by the addition of 33 μL/well stop solution (1 M NaOH and 1 M glycine mixture, pH 10) after 30 min of incubation at 37° C. The fluorescence was then measured in the Biotek Synergy H1 multi-mode plate reader with Ex=365 nm and Em=440 nm.
Additional compounds were prepared and tested according to the procedures provided in the examples above.
Additional substituted quinazoline compounds were prepared and tested according to the procedures provided in the examples above.

Sequence of Glucocerebrosidase (P04062 40-536): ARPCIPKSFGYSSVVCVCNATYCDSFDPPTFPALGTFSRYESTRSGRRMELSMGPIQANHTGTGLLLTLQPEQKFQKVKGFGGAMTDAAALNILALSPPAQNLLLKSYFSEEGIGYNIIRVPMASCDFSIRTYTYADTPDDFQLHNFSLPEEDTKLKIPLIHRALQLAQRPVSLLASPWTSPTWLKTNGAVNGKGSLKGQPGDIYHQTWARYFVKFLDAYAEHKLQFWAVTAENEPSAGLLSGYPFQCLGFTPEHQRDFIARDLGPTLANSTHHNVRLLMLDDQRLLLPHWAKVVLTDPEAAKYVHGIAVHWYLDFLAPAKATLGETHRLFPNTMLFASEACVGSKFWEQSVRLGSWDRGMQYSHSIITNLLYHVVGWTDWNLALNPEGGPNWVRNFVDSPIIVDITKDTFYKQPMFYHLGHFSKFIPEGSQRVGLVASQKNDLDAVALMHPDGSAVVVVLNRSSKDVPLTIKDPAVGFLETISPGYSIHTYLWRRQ

| Structure (SMILES) | Activity AC50 or IC50 |
| --- | --- |
| CN(CCOc1ccccc1)c1nc(-c2ccccc2)nc2ccccc12 [compound 131] | Inactive |
| CN(CCOc1ccccc1)c1nc(-c2ccsc2)nc2ccccc12 [compound 126] | Inactive |

Same assay, conditions: marked (act), activator, AC50

| Structure (SMILES) | IC50 or AC50 (act) |
| --- | --- |
| CC(C)(C)Nc1nc(-c2cccnc2)nc2ccccc12 [compound 54] | Weak (act) |
| [N-]=[N+]=Nc1c(F)c(F)c(CNc2nc(-c3cccnc3)nc3ccccc23)c(F)c1F [compound 37] | Weak (act) |
| CN1CCN(c2ccc(C(=O)N3CCN(c4nc(-c5cccnc5)nc5ccccc45)CC3)cc2)CC1 [compound 38] | Weak (act) |

Same assay, conditions: marked (act), activator, AC50; read-out: IC50 or AC50 (act)

| Structure (SMILES) | AC50 [nM] |
| --- | --- |
| CN(Cc1nc2ccccc2[nH]1)c1nc(-c2cccnc2)nc2ccccc12 [compound 15] | 8910 |

Same assay, conditions: marked (inh), inhibitor

| Structure (SMILES) | IC50 or AC50 (inh) |
| --- | --- |
| CN1CCC(Nc2nc(-c3cccnc3)nc3ccccc23)CC1 [compound 45] | Weak (inh) |

Same assay, conditions: marked (inh), inhibitor; read-out: IC50 or AC50 (inh)

| Structure (SMILES) | IC50 [nM] |
| --- | --- |
| O=C(C1COc2ccccc2O1)N1CCN(c2nc(-c3cccnc3)nc3ccccc23)CC1 (stereo not drawn) [compound 29] | 2240 |
| c1ccc(CCNc2nc(-c3cccnc3)nc3ccccc23)cc1 [compound 60] | 112 |
| c1cncc(-c2nc(NCC3CCCCC3)c3ccccc3n2)c1 [compound 57] | 354 |
| c1cncc(-c2nc(NC3Cc4ccccc4C3)c3ccccc3n2)c1 [compound 1] | 7 |
| CC(C)N1CCC(Nc2nc(-c3cccnc3)nc3ccccc23)CC1 [compound 41] | 35500 |
| c1ccc(CN2CCC(Nc3nc(-c4cccnc4)nc4ccccc34)CC2)cc1 [compound 44] | 31600 |
| CC1CCCC(Nc2nc(-c3cccnc3)nc3ccccc23)C1 (stereo not drawn) [compound 86] | 79 |
| c1cncc(-c2nc(NC3CCCC3)c3ccccc3n2)c1 [compound 39] | 790 |
| c1cncc(-c2nc(NC3CCCCCCC3)c3ccccc3n2)c1 [compound 76] | 28 |
| c1cncc(-c2nc(NCCC3CCCCC3)c3ccccc3n2)c1 [compound 63] | 282 |
| c1cncc(-c2nc(NC3CCCCC3)c3ccccc3n2)c1 [compound 40] | 177 |
| Fc1cccc(CCNc2nc(-c3cccnc3)nc3ccccc23)c1 [compound 55] | 141 |

Same assay, conditions: marked activator, AC50

| Structure (SMILES) | Activity AC50 or IC50 (activator) |
| --- | --- |
| CN(CCOc1ccccc1)c1nc(-c2ccccn2)nc2ccccc12 [compound 143] | Weak activator |
| COC(=O)CCCCCCCCC#Cc1ccc(OCCN(C)c2nc(-c3cccnc3)nc3ccccc23)cc1 [compound 109] | Weak activator |
| CN(c1nc(-c2cccnc2)nc2ccccc12)C1Cc2ccc(C#CCCCCCCCCC(=O)ON3C(=O)CCC3=O)cc2C1 (stereo not drawn) [compound 105] | Weak activator |
| CN(CCOc1ccc(C#CCCCCCCCCC(=O)ON2C(=O)CCC2=O)cc1)c1nc(-c2cccnc2)nc2ccccc12 [compound 153] | activator |
| CN(CCOc1ccc(C#CCOCCOCCNc2nc(-c3cccnc3)nc3ccccc23)cc1)c1nc(-c2cccnc2)nc2ccccc12 [compound 110] | Weak activator |
| c1cncc(-c2nc(N3CCCOCC3)c3ccccc3n2)c1 [compound 116] | Weak activator |
| CN(c1nc(-c2cccnc2)nc2ccccc12)C1CCCCCCC1 [compound 123] | Weak activator |

Same assay, conditions: marked activator, AC50; read-out: Activity AC50 or IC50 (activator)

| Structure (SMILES) | AC50 [nM] |
| --- | --- |
| CN(CCCc1ccccc1)c1nc(-c2cccnc2)nc2ccccc12 [compound 119] | 5010 |

Same assay, conditions: marked inhibitor; read-out: Activity AC50 or IC50 (inhibitor)

| Structure (SMILES) | IC50 [nM] |
| --- | --- |
| Brc1ccc2c(c1)CC(Nc1nc(-c3cccnc3)nc3ccccc13)C2 (stereo not drawn) [compound 100] | 178 |
| CC(COc1ccccc1)Nc1nc(-c2cccnc2)nc2ccccc12 (stereo not drawn) [compound 97] | 2510 |
| CC(C)(C)OC(=O)NCCC#Cc1ccc2c(c1)CC(Nc1nc(-c3cccnc3)nc3ccccc13)C2 (stereo not drawn) [compound 96] | 560 |
| Nc1ccc(-c2nc(NC3Cc4ccccc4C3)c3ccccc3n2)cc1 [compound 142] | 7.1 |
| NCCC#Cc1ccc2c(c1)CC(Nc1nc(-c3cccnc3)nc3ccccc13)C2 (stereo not drawn) [compound 99] | 891 |
| CCCCCCCCNc1nc(-c2cccnc2)nc2ccccc12 [compound 95] | 2240 |
